According to patent US6225478A, “Iridoid derivatives and neovascularization inhibitors containing the same as active ingredient” (Tsumura & Co., priority 1999, dated 2001):

System: human umbilical-vein endothelial cells (HUVEC)
Test: Tube Formation Assay (TFA) Test, HUVEC in collagen gel
Assay type: cell-based
Settings: Homo sapiens, HUVEC, Tables 75-83; 0.32 mM sample solution; method as for Compounds 1 through 60; read-out: TFA Inhibition rate (%)
Summary of the method: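 Inhibition rate (%) of tube formation is computed from tube lengths against control (+) and control (-), measured after 20 h at 37 °C in M-199 with 20% FCS, 30 ng/ml b-FGF and 0.1 μM PMA. Samples were applied to HUVEC on collagen and covered by a second collagen layer (double-layer gel).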

Compared with `COC(=O)C1=CO[C@@H](OC(=O)NCC#N)[C@H]2[C@@H]1CC[C@@H]2C` [I-176], `COC(=O)C1=CO[C@@H](OC(=O)NCC(C)C)[C@H]2[C@@H]1CC[C@@H]2C` [I-190] is higher in inhibition at 320 µM (stock): 2.2% for the first, 12.8% for the second.

First: COC(=O)C1=CO[C@@H](OC(=O)NCc2ccccn2)[C@H]2[C@@H]1CC[C@@H]2C [I-177]
Second: COC(=O)C1=CO[C@@H](OC(=O)NCCc2ccccn2)[C@H]2[C@@H]1CC[C@@H]2C [I-182]
The inhibition at 320 µM (stock) of the first is higher: 15% for the first, 9.6% for the second.

Going from `COC(=O)C1=CO[C@@H](OC(=O)NCc2cccnc2)[C@H]2[C@@H]1CC[C@@H]2C` [I-178] to `COC(=O)C1=CO[C@@H](OC(=O)NCc2ccccc2)[C@H]2[C@@H]1CC[C@@H]2C` [I-183], the inhibition at 320 µM (stock) rises from 5.8% to 8.7%.

First: COC(=O)C1=CO[C@@H](OC(N)=O)[C@H]2[C@@H]1CC[C@@H]2C [I-179]
Second: COC(=O)C1=CO[C@@H](OC(=O)NCCO)[C@H]2[C@@H]1CC[C@@H]2C [I-187]
The inhibition at 320 µM (stock) of the first is lower: 5.2% for the first, 11.7% for the second.

Going from `COC(=O)C1=CO[C@@H](OC(=O)N2CCN(CCO)CC2)[C@H]2[C@@H]1CC[C@@H]2C` [I-180] to `CCN1CCN(C(=O)O[C@@H]2OC=C(C(=O)OC)[C@H]3CC[C@H](C)[C@@H]23)CC1` [I-200], the inhibition at 320 µM (stock) falls from 7.7% to 5.6%.

First: COC(=O)C1=CO[C@@H](OC(=O)NCC2CCCO2)[C@H]2[C@@H]1CC[C@@H]2C (stereo partly drawn) [I-181]
Second: COC(=O)C1=CO[C@@H](OC(=O)NCC2CCCCC2)[C@H]2[C@@H]1CC[C@@H]2C [I-191]
The inhibition at 320 µM (stock) of the first is lower: 3.2% for the first, 6% for the second.

Compared with `COC(=O)C1=CO[C@@H](OC(=O)N(C)Cc2ccccc2)[C@H]2[C@@H]1CC[C@@H]2C` [I-184], `CCCN(C)C(=O)O[C@@H]1OC=C(C(=O)OC)[C@H]2CC[C@H](C)[C@@H]12` [I-193] is lower in inhibition at 320 µM (stock): 7.4% for the first, 6.7% for the second.

Compared with `COC(=O)C1=CO[C@@H](OC(=O)NCCc2ccccc2F)[C@H]2[C@@H]1CC[C@@H]2C` [I-185], `COC(=O)C1=CO[C@@H](OC(=O)NCCc2cccs2)[C@H]2[C@@H]1CC[C@@H]2C` [I-197] is lower in inhibition at 320 µM (stock): 4.9% for the first, 4.5% for the second.

Compared with `COC(=O)C1=CO[C@@H](OC(=O)NCc2ccc(OC)cc2)[C@H]2[C@@H]1CC[C@@H]2C` [I-186], `COC(=O)C1=CO[C@@H](OC(=O)NCc2ccc(Cl)c(Cl)c2)[C@H]2[C@@H]1CC[C@@H]2C` [I-196] is higher in inhibition at 320 µM (stock): 5.5% for the first, 6.2% for the second.

Compared with `COC(=O)C1=CO[C@@H](OC(=O)N2CCOCC2)[C@H]2[C@@H]1CC[C@@H]2C` [I-188], `COC(=O)C1=CO[C@@H](OC(=O)N2CC=CCC2)[C@H]2[C@@H]1CC[C@@H]2C` [I-194] is lower in inhibition at 320 µM (stock): 10.2% for the first, 3% for the second.

Compared with `COC(=O)C1=CO[C@@H](OC(=O)N(C)CCN(C)C)[C@H]2[C@@H]1CC[C@@H]2C` [I-189], `COC(=O)C1=CO[C@@H](OC(=O)N(C)CC2OCCO2)[C@H]2[C@@H]1CC[C@@H]2C` [I-198] is lower in inhibition at 320 µM (stock): 4.7% for the first, 2.9% for the second.

Going from `COC(=O)C1=CO[C@@H](OC(=O)NC2CCN(Cc3ccccc3)CC2)[C@H]2[C@@H]1CC[C@@H]2C` [I-192] to `COC(=O)C1=CO[C@@H](OC(=O)N2CCC(Cc3ccccc3)CC2)[C@H]2[C@@H]1CC[C@@H]2C` [I-199], the inhibition at 320 µM (stock) rises from 4.5% to 6%.

First: COC(=O)C1=CO[C@@H](OC(=O)NCc2ccc(F)cc2F)[C@H]2[C@@H]1CC[C@@H]2C [I-195]
Second: COC(=O)C1=CO[C@@H](OC(=O)NCC(OC)OC)[C@H]2[C@@H]1CC[C@@H]2C [I-201]
The inhibition at 320 µM (stock) of the first is lower: 3.7% for the first, 18.5% for the second.

`COC(=O)C1=CO[C@@H](OC(=O)NCCOCCO)[C@H]2[C@@H]1CC[C@@H]2C` [I-202] was tested, and the inhibition at 320 µM (stock) was 26.2%.

System: HUFEC
Test: Cell Migration Assay (CMA) Test, inhibitory rate with control (-) correction
Assay type: cell-based, human
Settings: Homo sapiens, 24 h, 125 μl of 0.32 mM sample solution in 4.0 ml medium, 80% or more = remarkable
Summary of the method: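 Confluent HUFEC monolayers were scratch-wounded, then cultured 24 h at 37 °C, 5% CO2 in M199 (2+) medium with compound added as 125 μl of a 0.32 mM solution (3.2% DMSO) per 4 ml. Giemsa-stained cells migrating into 1 mm×1 mm blocks counted; inhibition % calculated relative to control (+) and control (−) wells.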

First: COC(=O)C1=CO[C@@H](OC(=O)NCC#N)[C@H]2[C@@H]1CC[C@@H]2C [I-176]
Second: COC(=O)C1=CO[C@@H](OC(=O)NCC(C)C)[C@H]2[C@@H]1CC[C@@H]2C [I-190]
The inhibition at 320 µM (stock) of the first is lower: 11.7% for the first, 21.8% for the second.

Going from `COC(=O)C1=CO[C@@H](OC(=O)NCc2ccccn2)[C@H]2[C@@H]1CC[C@@H]2C` [I-177] to `COC(=O)C1=CO[C@@H](OC(=O)NCCc2ccccn2)[C@H]2[C@@H]1CC[C@@H]2C` [I-182], the inhibition at 320 µM (stock) falls from 5% to 3.9%.

Going from `COC(=O)C1=CO[C@@H](OC(=O)NCc2cccnc2)[C@H]2[C@@H]1CC[C@@H]2C` [I-178] to `COC(=O)C1=CO[C@@H](OC(=O)NCc2ccccc2)[C@H]2[C@@H]1CC[C@@H]2C` [I-183], the inhibition at 320 µM (stock) rises from 6.3% to 25.4%.

Compared with `COC(=O)C1=CO[C@@H](OC(N)=O)[C@H]2[C@@H]1CC[C@@H]2C` [I-179], `COC(=O)C1=CO[C@@H](OC(=O)NCCO)[C@H]2[C@@H]1CC[C@@H]2C` [I-187] is lower in inhibition at 320 µM (stock): 81.3% for the first, 31.3% for the second.

Going from `COC(=O)C1=CO[C@@H](OC(=O)N2CCN(CCO)CC2)[C@H]2[C@@H]1CC[C@@H]2C` [I-180] to `CCN1CCN(C(=O)O[C@@H]2OC=C(C(=O)OC)[C@H]3CC[C@H](C)[C@@H]23)CC1` [I-200], the inhibition at 320 µM (stock) falls from 50% to 25%.

Compared with `COC(=O)C1=CO[C@@H](OC(=O)NCC2CCCO2)[C@H]2[C@@H]1CC[C@@H]2C` (stereo partly drawn) [I-181], `COC(=O)C1=CO[C@@H](OC(=O)NCC2CCCCC2)[C@H]2[C@@H]1CC[C@@H]2C` [I-191] is higher in inhibition at 320 µM (stock): 2.3% for the first, 8% for the second.

Going from `COC(=O)C1=CO[C@@H](OC(=O)N(C)Cc2ccccc2)[C@H]2[C@@H]1CC[C@@H]2C` [I-184] to `CCCN(C)C(=O)O[C@@H]1OC=C(C(=O)OC)[C@H]2CC[C@H](C)[C@@H]12` [I-193], the inhibition at 320 µM (stock) falls from 37.1% to 5.3%.

Compared with `COC(=O)C1=CO[C@@H](OC(=O)NCCc2ccccc2F)[C@H]2[C@@H]1CC[C@@H]2C` [I-185], `COC(=O)C1=CO[C@@H](OC(=O)NCCc2cccs2)[C@H]2[C@@H]1CC[C@@H]2C` [I-197] is higher in inhibition at 320 µM (stock): 15.6% for the first, 20% for the second.

First: COC(=O)C1=CO[C@@H](OC(=O)NCc2ccc(OC)cc2)[C@H]2[C@@H]1CC[C@@H]2C [I-186]
Second: COC(=O)C1=CO[C@@H](OC(=O)NCc2ccc(Cl)c(Cl)c2)[C@H]2[C@@H]1CC[C@@H]2C [I-196]
The inhibition at 320 µM (stock) of the first is lower: 6.3% for the first, 27.6% for the second.

Compared with `COC(=O)C1=CO[C@@H](OC(=O)N2CCOCC2)[C@H]2[C@@H]1CC[C@@H]2C` [I-188], `COC(=O)C1=CO[C@@H](OC(=O)N2CC=CCC2)[C@H]2[C@@H]1CC[C@@H]2C` [I-194] is lower in inhibition at 320 µM (stock): 7.1% for the first, 5.5% for the second.

Going from `COC(=O)C1=CO[C@@H](OC(=O)N(C)CCN(C)C)[C@H]2[C@@H]1CC[C@@H]2C` [I-189] to `COC(=O)C1=CO[C@@H](OC(=O)N(C)CC2OCCO2)[C@H]2[C@@H]1CC[C@@H]2C` [I-198], the inhibition at 320 µM (stock) falls from 8.5% to 7.9%.

First: COC(=O)C1=CO[C@@H](OC(=O)NC2CCN(Cc3ccccc3)CC2)[C@H]2[C@@H]1CC[C@@H]2C [I-192]
Second: COC(=O)C1=CO[C@@H](OC(=O)N2CCC(Cc3ccccc3)CC2)[C@H]2[C@@H]1CC[C@@H]2C [I-199]
The inhibition at 320 µM (stock) of the first is lower: 7.8% for the first, 25% for the second.

First: COC(=O)C1=CO[C@@H](OC(=O)NCc2ccc(F)cc2F)[C@H]2[C@@H]1CC[C@@H]2C [I-195]
Second: COC(=O)C1=CO[C@@H](OC(=O)NCC(OC)OC)[C@H]2[C@@H]1CC[C@@H]2C [I-201]
The inhibition at 320 µM (stock) of the first is higher: 15.7% for the first, 8.5% for the second.

`COC(=O)C1=CO[C@@H](OC(=O)NCCOCCO)[C@H]2[C@@H]1CC[C@@H]2C` [I-202] showed an inhibition at 320 µM (stock) of 6.5%.
